Reference: patent US11111232B2, “Substituted cyclobutylpyridine and cyclobutylpyrimidine compounds as indoleamine 2,3-dioxygenase (IDO) inhibitors” (MERCK SHARP & DOHME CORP., priority 2017, dated 2021)

How the values were obtained:
IDO1 = IDO1 (Homo sapiens, UniProt P14902); assay: IDO1 cellular assay in Hela cells stimulated with IFNγ; type: cell-based; details: IFNγ 100 ng/mL, 300 uM L-tryptophan, about 48 hours, fluorescence readout
Description: IDO1 Cellular Assay in Hela Cells Stimulated with IFNγ
Hela cells were cultured in complete Hela culture medium (90% EMEM, 10% heat-inactivated fetal bovine serum) and expanded to about 1×10^9 cells. The cells were then collected and frozen down at 1×10^7 cells/vial in 1 mL frozen medium (90% complete Hela culture medium, 10% DMSO)
Compounds to be tested were serially diluted in ten 3-fold steps in DMSO starting from 10 mM DMSO stocks in Echo low volume plate(s).
Frozen Hela cells were thawed and transferred into Hela assay medium (99% complete Hela culture medium, 1% Pen/Strep) with 20 mL medium/vial of cells. The cells were spun down at 250 g in a table top centrifuge for 5 min and suspended in same volume of Hela assay medium. […] Sterile L-tryptophan were added to the cells with final concentration of 300 uM L-tryptophan. A small aliquot (2 mL/plate) of Hela cells were set aside and were not treated with IFNγ, to serve as the Max-E control.
Hela cells with and without IFNγ were dispensed to the respective wells of 384-well assay plates containing the compounds. The plates were incubated for about 48 hours at a 37° C., 5% CO2 incubator. Afterwards, […] of 0.5 M methyl isonipecotate in dimethyl sulfoxide were added into each well and the plates were sealed and incubated at 37° C. without CO2 overnight. The plates were centrifuged for 1 min at 200×g. The resulting fluorescence was measured in a Spectramax plate reader (Molecular Devices) with a 400 nm excitation filter and a 510 nm emission filter.
Potencies were calculated by linear least squares fit to the four parameter logistic IC50 equation.

TDO = target: T1, TDO (Homo sapiens, UniProt P48775); assay: TDO cellular assay in frozen SW48 cells; type: cell-based; details: 300 uM L-tryptophan, about 48 hours, fluorescence readout
T1 construct: endogenous in cells; host or cells: SW48 cells (A2780 cells as low-TDO control)
Description: TDO Cellular Assay in Frozen SW48 Cells
SW48 cells were cultured in complete RPMI culture medium (90% RPMI, 10% heat-inactivated fetal bovine serum).
Compounds to be tested were serially diluted in ten 3-fold steps in DMSO starting from 10 mM DMSO stocks in Echo low volume plate(s). […] The cells were spun down at 350 g in a table top centrifuge for 5 minutes and suspended in same volume of RPMI assay medium. […] Sterile L-tryptophan (Sigma, Cat #T0254) was added to the cells with final concentration of 300 uM.
SW48 and A2780 cells were dispensed to the respective wells of 384-well assay plates containing the compounds. The plates were incubated for about 48 hours at a 37° C., 5% CO2 incubator. Afterwards, 12 μL of 0.5 M ethyl isonipecotate (Sigma Aldrich, Cat #E33505) in dimethyl sulfoxide were added into each well and the plates were sealed and incubated at 37° C. without CO2 overnight. The plates were centrifuged for 1 minute at 200×g. The resulting fluorescence was measured in a Spectramax plate reader (Molecular Devices) with a 400 nm excitation filter and a 510 nm emission filter.
The fluorescence intensity of each well was corrected for the background observed in wells with A2780 cells and was expressed as a fraction of the intensity observed in wells of SW48 cells and DMSO only. Potencies were calculated by linear least squares fit to the four parameter logistic IC50 equation.

T1 sequence (P48775 whole entry): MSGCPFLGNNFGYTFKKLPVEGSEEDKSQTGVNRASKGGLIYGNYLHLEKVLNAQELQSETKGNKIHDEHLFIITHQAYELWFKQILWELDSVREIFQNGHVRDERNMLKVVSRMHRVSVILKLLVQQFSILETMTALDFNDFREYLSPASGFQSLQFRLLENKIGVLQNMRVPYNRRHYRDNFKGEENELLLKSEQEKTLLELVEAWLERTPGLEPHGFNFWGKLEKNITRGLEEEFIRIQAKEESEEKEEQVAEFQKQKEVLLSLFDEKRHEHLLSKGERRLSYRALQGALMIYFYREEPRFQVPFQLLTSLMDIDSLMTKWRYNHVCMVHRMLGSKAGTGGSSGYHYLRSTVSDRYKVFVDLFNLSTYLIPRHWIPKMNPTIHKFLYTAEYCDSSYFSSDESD
Sequence of IDO1 (P14902 whole entry): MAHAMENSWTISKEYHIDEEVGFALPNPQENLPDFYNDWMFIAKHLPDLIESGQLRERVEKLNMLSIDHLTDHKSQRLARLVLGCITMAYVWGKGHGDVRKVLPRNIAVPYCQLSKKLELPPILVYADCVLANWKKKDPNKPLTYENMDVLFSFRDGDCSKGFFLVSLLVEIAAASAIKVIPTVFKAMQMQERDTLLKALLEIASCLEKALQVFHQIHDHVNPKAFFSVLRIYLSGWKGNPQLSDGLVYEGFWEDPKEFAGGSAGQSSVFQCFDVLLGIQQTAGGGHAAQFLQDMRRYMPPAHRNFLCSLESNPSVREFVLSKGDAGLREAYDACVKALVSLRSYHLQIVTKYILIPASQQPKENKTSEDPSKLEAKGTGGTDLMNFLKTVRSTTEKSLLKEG

Row | Compound | IC50 (IDO1) [nM] | IC50 (TDO) [nM]
1 | CCCNC(=O)C1(c2ccc(NC(=O)c3cccc(Cl)c3)nc2)CCC1 [Example 4, 3-chloro-N-{5-[1-(propylcarbamoyl)cyclobutyl]pyridin-2-yl}benzamide] | 151 | ≥ 10000
2 | O=C(CCC1CC1)Nc1ccc(C2(C(=O)Nc3ccc(F)nc3)CCC2)cn1 [Example 12, 1-{6-[(3-cyclopropylpropanoyl)amino]pyridin-3-yl}-N-(6-fluoropyridin-3-yl)cyclobutane-1-carboxamide] | 227 | ≥ 10000
3 | N#C[C@@H]1CCC[C@@H](C(=O)Nc2ccc(C3(C(=O)Nc4ccc(F)cc4)CCC3)cn2)C1 [Example 13, (1R,3R)-3-cyano-N-(5-{1-[(4-fluorophenyl)carbamoyl]cyclobutyl}pyridin-2-yl)cyclohexane-1-carboxamide] | 236 | ≥ 10000
4 | O=C(Nc1ccc(C2(C(=O)Nc3ccc(F)cc3)CCC2)cn1)N1CCCC1 [Example 31, N-(5-{1-[(4-fluorophenyl)carbamoyl]cyclobutyl}pyridin-2-yl)pyrrolidine-1-carboxamide] | 145 | ≥ 10000
5 | N#Cc1cncc(C(=O)Nc2ccc(C3(C(=O)Nc4ccc(F)cc4)CCC3)cn2)c1 [Example 32, 5-cyano-N-(5-{1-[(4-fluorophenyl)carbamoyl]cyclobutyl}pyridin-2-yl)pyridine-3-carboxamide] | 174 | ≥ 10000
6 | O=C(Nc1ccc(C2(C(=O)NC3CCC(F)(F)CC3)CCC2)cn1)c1cncc(Cl)c1 [Example 33, 5-Chloro-N-(5-(1-((4,4-difluorocyclohexyl)carbamoyl)cyclobutyl)pyridin-2-yl)nicotinamide] | 1600 | ≥ 10000
7 | O=C(Nc1ccc(C2(C(=O)Nc3ccc(F)cn3)CCC2)cn1)c1cncc(Cl)c1 [Example 34, 5-chloro-N-(5-{1-[(5-fluoropyridin-2-yl)carbamoyl]cyclobutyl}pyridin-2-yl)pyridine-3-carboxamide] | 104 | ≥ 10000
8 | O=C(NC1CCCCC1)c1ccc(C2(C(=O)Nc3ccc(F)cc3)CCC2)cn1 [Example 35, N-cyclohexyl-5-(1-((4-fluorophenyl)carbamoyl)cyclobutyl)picolinamide] | 473 | ≥ 10000
9 | O=C(NC1(c2ccc(NC(=O)c3ncco3)cn2)CCC1)c1ccc(Cl)nc1 [Example 39, N-(6-(1-(6-chloronicotinamido)cyclobutyl)pyridin-3-yl)oxazole-2-carboxamide] | 921 | ≥ 10000
10 | O=C(NC1(c2ccc(NC(=O)c3nccs3)cn2)CCC1)c1ccc(Cl)nc1 [Example 40, 6-chloro-N-(1-{5-[(1,3-thiazole-2-carbonyl)amino]pyridin-2-yl}cyclobutyl)pyridine-3-carboxamide] | 280 | ≥ 10000
11 | O=C(Nc1ccc(C2(NC(=O)c3ccc(Cl)nc3)CCC2)nc1)c1ccnc(Cl)c1 [Example 43, 6-chloro-N-(1-{5-[(2-chloropyridine-4-carbonyl)amino]pyridin-2-yl}cyclobutyl)pyridine-3-carboxamide] | 377 | ≥ 10000
12 | O=C(Nc1ccc(C2(NC(=O)c3ccc(Cl)nc3)CCC2)nc1)c1cncc(Cl)c1 [Example 44, 5-chloro-N-(6-{1-[(6-chloropyridine-3-carbonyl)amino]cyclobutyl}pyridin-3-yl)pyridine-3-carboxamide] | 131 | ≥ 10000
13 | O=C(Nc1ccc(C2(NC(=O)c3ccc(Cl)nc3)CCC2)nc1)c1ccnc(C(F)(F)F)c1 [Example 45, 6-chloro-N-[1-(5-{[2-(trifluoromethyl)pyridine-4-carbonyl]amino}pyridin-2-yl)cyclobutyl]pyridine-3-carboxamide] | 469 | ≥ 10000
14 | N#Cc1cccc(C(=O)Nc2ccc(C3(C(=O)Nc4ccc(F)cc4)CCC3)nc2O)c1 [Example 54, 3-cyano-N-(6-(1-((4-fluorophenyl)carbamoyl)cyclobutyl)-2-hydroxypyridin-3-yl)benzamide] | 540 | –

Continued by falling IC50 (IDO1), values first:

Row | IC50 (IDO1) [nM] | IC50 (TDO) [nM] | Compound
15 | 103 | ≥ 10000 | CC(C)(C)OC(=O)Nc1ccc(C2(C(=O)Nc3ccc(F)cc3)CCC2)cn1 [Example 19, tert-butyl (5-{1-[(4-fluorophenyl)carbamoyl]cyclobutyl}pyridin-2-yl)carbamate]
16 | 96 | ≥ 10000 | CC(C)(C)CCC(=O)Nc1ccc(C2(C(=O)Nc3ccc(F)cc3)CCC2)cn1 [Example 11, 1-{6-[(4,4-dimethylpentanoyl)amino]pyridin-3-yl}-N-(4-fluorophenyl)cyclobutane-1-carboxamide]
17 | 94 | ≥ 10000 | O=C(Nc1ccc(C2(C(=O)Nc3ccc(F)nc3)CCC2)cn1)c1cccc(Cl)n1 [Example 6, 6-chloro-N-(5-{1-[(6-fluoropyridin-3-yl)carbamoyl]cyclobutyl}pyridin-2-yl)pyridine-2-carboxamide]
18 | 94 | ≥ 10000 | O=C(Nc1ccc(C2(C(=O)Nc3ccc(F)cc3)CCC2)cn1)c1c(F)ccc(Cl)c1F [Example 21, 3-chloro-2,6-difluoro-N-(5-{1-[(4-fluorophenyl)carbamoyl]cyclobutyl}pyridin-2-yl)benzamide]
19 | 67 | ≥ 10000 | N#C[C@@H]1CCC[C@H](C(=O)Nc2ccc(C3(C(=O)Nc4ccc(F)cc4)CCC3)cn2)C1 [Example 10, (1S,3R)-3-cyano-N-(5-{1-[(4-fluorophenyl)carbamoyl]cyclobutyl}pyridin-2-yl)cyclohexane-1-carboxamide]
20 | 56 | ≥ 10000 | O=C(Nc1ccc(C2(C(=O)Nc3ccc(F)cc3)CCC2)cn1)C1CCC(F)(F)CC1 [Example 9, 4,4-difluoro-N-(5-{1-[(4-fluorophenyl)carbamoyl]cyclobutyl}pyridin-2-yl)cyclohexane-1-carboxamide]
21 | 43 | ≥ 10000 | Cc1cccc(C(=O)Nc2ccc(C3(C(=O)Nc4ccc(F)nc4)CCC3)cn2)n1 [Example 8, N-(5-{1-[(6-fluoropyridin-3-yl)carbamoyl]cyclobutyl}pyridin-2-yl)-6-methylpyridine-2-carboxamide]
22 | 30 | ≥ 10000 | O=C(Nc1ccc(C2(C(=O)Nc3ccc(F)cc3)CCC2)cn1)c1cncc(F)c1 [Example 28, 5-fluoro-N-(5-{1-[(4-fluorophenyl)carbamoyl]cyclobutyl}pyridin-2-yl)pyridine-3-carboxamide]
23 | 14 | ≥ 10000 | O=C(Nc1ccc(C2(C(=O)Nc3ccc(F)cc3)CCC2)cn1)c1cc(Cl)ccc1F [Example 16, 5-chloro-2-fluoro-N-(5-{1-[(4-fluorophenyl)carbamoyl]cyclobutyl}pyridin-2-yl)benzamide]
24 | 13 | ≥ 10000 | O=C(Nc1ccc(C2(C(=O)Nc3ccc(F)cc3)CCC2)cn1)c1cc(Cl)ccn1 [Example 26, 4-chloro-N-(5-{1-[(4-fluorophenyl)carbamoyl]cyclobutyl}pyridin-2-yl)pyridine-2-carboxamide]
25 | 3 | ≥ 10000 | O=C(Nc1ccc(C2(C(=O)NCCC(F)(F)F)CCC2)cn1)c1cccc(Cl)c1 [Example 3, 3-chloro-N-(5-{1-[(3,3,3-trifluoropropyl)carbamoyl]cyclobutyl}pyridin-2-yl)benzamide]
